# What was measured:
# E. coli, NIHJ = assay: Antibacterial activity (MIC), standard method of the Japan Society of Chemotherapy; assay type: cell-based; conditions: Escherichia coli
# Procedure: (§1) Antibacterial activities of the compounds of this invention were measured in accordance to the standard method designated by the Japan Society of Chemotherapy, with the results shown as MIC values (microgram/ml) units in the following table. For comparison with the MIC values of the compounds of this invention, MIC values of levofloxacin (LVFX), ciprofloxacin (CPFX) and 7-[3-(R)-(1-aminocyclopropyl)pyrrolidin-1-yl]-6-fluoro-1-[2-(S)-fluoro-1-(R)-cyclopropyl]-8-methyl-1,4-dihydro-4-oxoquinoline-3-carboxylic acid (Reference drug 1), which is described in PCT/JP96/00208, are also shown in the table.
# K. pneumoniae, Type 1 = assay: as above; assay type: cell-based; conditions: Klebsiella pneumoniae, TYPE1
# Procedure: as §1
# Pr. vulgalis, 08601 = assay: as above; assay type: cell-based
# Procedure: as §1
# Ps. aeruginosa, 32104 = assay: as above; assay type: cell-based; conditions: Pseudomonas aeruginosa
# Procedure: as §1
# Ps. aeruginosa, 32121 = assay: as above; assay type: cell-based; conditions: Pseudomonas aeruginosa
# Procedure: as §1
# [1] = tested on: Ps. maltophilia, IID-1275; assay: as above; assay type: cell-based; conditions: Stenotrophomonas maltophilia, IID1275
# Procedure: as §1
# S. aureus, 209P = assay: as above; assay type: cell-based; conditions: Staphylococcus aureus
# Procedure: as §1
# S. aureus, 870307 = assay: as above; assay type: cell-based; conditions: Staphylococcus aureus
# Procedure: as §1
# S. epidermidis, 56500 = assay: as above; assay type: cell-based; conditions: Staphylococcus epidermidis
# Procedure: as §1
# S. flexneri, 2A 5503 = assay: as above; assay type: cell-based; conditions: Shigella flexneri, 2A5503
# Procedure: as §1
# Ser. marcescens, 10100 = assay: as above; assay type: cell-based; conditions: Serratia marcescens
# Procedure: as §1
# [2] = tested on: Str. faecalis, ATCC 19433; assay: as above; assay type: cell-based; conditions: Enterococcus faecalis, ATCC19433
# Procedure: as §1
# Str. pneumoniae J24 = assay: as above; assay type: cell-based; conditions: Streptococcus pneumoniae
# Procedure: as §1
# Str. pyogenes, G-36 = assay: as above; assay type: cell-based; conditions: Streptococcus pyogenes, G36
# Procedure: as §1
SMILES,"MIC (E. coli, NIHJ) [µg/mL]","MIC (K. pneumoniae, Type 1) [µg/mL]","MIC (Pr. vulgalis, 08601) [µg/mL]","MIC (Ps. aeruginosa, 32104) [µg/mL]","MIC (Ps. aeruginosa, 32121) [µg/mL]",MIC [1] [µg/mL],"MIC (S. aureus, 209P) [µg/mL]","MIC (S. aureus, 870307) [µg/mL]","MIC (S. epidermidis, 56500) [µg/mL]","MIC (S. flexneri, 2A 5503) [µg/mL]","MIC (Ser. marcescens, 10100) [µg/mL]",MIC [2] [µg/mL],MIC (Str. pneumoniae J24) [µg/mL],"MIC (Str. pyogenes, G-36) [µg/mL]",melting point [°C]
"CCNC1([C@@H]2CCN(c3ccc4c(=O)c(C(=O)O)cn([C@@H]5C[C@@H]5F)c4c3C)C2)CC1 [Example 14, 7-[3-(R)-[1-(ethylamino)cyclopropyl]pyrrolidin-1-yl]-1-[2-(S)-fluoro-1-(R)-cyclopropyl]-8-methyl-1,4-dihydro-4-oxoquinoline-3-carboxylic acid]",≤ 0.003,0.05,0.012,0.1,0.05,0.2,≤ 0.003,0.012,0.006,0.006,0.1,0.025,≤ 0.003,≤ 0.003,191 to 194
"CNC1([C@@H]2CCN(c3ccc4c(=O)c(C(=O)O)cn(C5CC5)c4c3C)C2)CC1 [Example 15, 1-(cyclopropyl)-8-methyl-7-[3-(R)-[1-(methylamino)cyclopropyl]pyrrolidin-1-yl]-1,4-dihydro-4-oxoquinoline-3-carboxylic acid]",≤ 0.003,0.025,0.012,0.1,0.05,0.2,≤ 0.003,0.025,0.006,0.006,0.1,0.025,≤ 0.003,≤ 0.003,190 to 192

# — US7902226B2, “Dehalogeno-compounds” (Daiichi Pharmaceutical Co., Ltd., priority 2000, dated 2011)
